The values that follow come from patent publication US20150291598A1 (NOVARTIS AG, priority 2012, published 2015).

The first test relates to P. falciparum (NF54 or 3D7 strain). Kind of test: Assay for P. falciparum proliferation in infected human blood cells (SYBR Green). Format: cell-based, Plasmodium falciparum. The following applies: Plasmodium falciparum, 3D7|NF54, Erythrocyte, in Homo sapiens, 72 h, NF54 or 3D7 infected human erythrocytes, 72 hours; read-out: EC50 (nM), inhibitory efficacy in delaying P. falciparum proliferation in infected human blood cells. The gist of the method:
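Infected erythrocytes (NF54 or 3D7; final 2.5% hematocrit, 0.3% parasitemia) were incubated with compounds for 72 h at 37 °C in low oxygen (3% O2, 4% CO2, 93% N2).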
For `CN(C(=O)c1cn2c(-c3ccc(-n4ccnc4)cc3)cnc2cn1)c1ccc(C#N)cc1` [Compound 146], the EC50 turned out to be 462 nM.
On the same count and under the same terms, the same measure for `CN(C(=O)c1cn2c(-c3ccc(S(N)(=O)=O)cc3)cnc2cn1)c1ccc(C#N)cc1` [Compound 148]: 1360 nM.

Staying with this test, now noted: Plasmodium falciparum, Erythrocyte, 72 h, NF54 or 3D7 infected human erythrocytes, 72 hours; read-out: EC50 (nM), inhibitory efficacy in delaying P. falciparum proliferation in infected human blood cells.
Take `CN(C(=O)c1cn2c(-c3ccc4c(ccn4C)c3)cnc2cn1)c1ccc(F)c(F)c1` [Compound 127, N-(3,4-difluorophenyl)-N-methyl-3-(1-methyl-1H-indol-5-yl)imidazo[1,2-a]pyrazine-6-carboxamide]: the EC50 amounted to 236 nM.
Take `CS(=O)(=O)c1ccc(NC(=O)c2cn3c(-c4ccc(C(F)(F)F)cc4)cnc3cn2)cc1` [Compound 128, N-(4-methanesulfonylphenyl)-3-[4-(trifluoromethyl)phenyl]imidazo[1,2-a]pyrazine-6-carboxamide]: the EC50 was greater than 10000 nM.
Same read-out and setting: the same measure for `CN(C(=O)c1cn2c(-c3ccc(S(C)(=O)=O)cc3)cnc2cn1)c1ccc(C#N)cc1` [Compound 129, N-(4-cyanophenyl)-3-(4-methanesulfonylphenyl)-N-methylimidazo[1,2-a]pyrazine-6-carboxamide]: 800 nM; for `COC(C)c1ccc(-c2cnc3cnc(C(=O)N(C)c4ccc(C#N)cc4)cn23)cc1` (centres unmarked) [Compound 130, N-(4-cyanophenyl)-3-[4-(1-methoxyethyl)phenyl]-N-methylimidazo[1,2-a]pyrazine-6-carboxamide]: 176 nM; for `CN(C(=O)c1cn2c(-c3ccc(-c4ccn[nH]4)cc3)cnc2cn1)c1ccc(S(C)(=O)=O)cc1` [Compound 131, N-(4-methanesulfonylphenyl)-N-methyl-3-[4-(1H-pyrazol-5-yl)phenyl]imidazo[1,2-a]pyrazine-6-carboxamide]: 140 nM.
As for `CN(C(=O)c1cn2c(-c3ccc(Cl)cc3)cnc2cn1)c1ccc(C#N)cc1` [Compound 132, 3-(4-chlorophenyl)-N-(4-cyanophenyl)-N-methylimidazo[1,2-a]pyrazine-6-carboxamide], the EC50 was determined as 206 nM.
`N#Cc1ccc(N(CCC2CCOCC2)C(=O)c2cn3c(-c4ccc(C(F)(F)F)cc4)cnc3cn2)cc1` [Compound 133, N-(4-cyanophenyl)-N-[2-(oxan-4-yl)ethyl]-3-[4-(trifluoromethyl)phenyl]imidazo[1,2-a]pyrazine-6-carboxamide]: the EC50 worked out at 338 nM.
For `CC(=O)c1ccc(-c2cnc3cnc(C(=O)N(C)c4ccc(C#N)cc4)cn23)cc1` [Compound 134, 3-(4-acetylphenyl)-N-(4-cyanophenyl)-N-methylimidazo[1,2-a]pyrazine-6-carboxamide], the EC50 is 490 nM.
Still for that read-out and setting: under `Cc1ccc(-c2cnc3cnc(C(=O)N(C)c4ccc(F)c(F)c4)cn23)cc1` [Compound 135, N-(3,4-difluorophenyl)-N-methyl-3-(4-methylphenyl)imidazo[1,2-a]pyrazine-6-carboxamide] stands 81 nM.
In the case of `CN(C(=O)c1cn2c(-c3ccc4c(ccn4C)c3)cnc2cn1)c1ccc(F)cc1` [Compound 136, N-(4-fluorophenyl)-N-methyl-3-(1-methyl-1H-indol-5-yl)imidazo[1,2-a]pyrazine-6-carboxamide], the EC50 came to 320 nM.
In the case of `CN(C(=O)c1cn2c(-c3ccc(C(F)(F)F)cc3)cnc2cn1)c1cccc(F)c1` [Compound 137, N-(3-fluorophenyl)-N-methyl-3-[4-(trifluoromethyl)phenyl]imidazo[1,2-a]pyrazine-6-carboxamide], the EC50 is 226 nM.
In the case of `CN(C(=O)c1cn2c(-c3ccc(OCC(F)(F)F)cc3)cnc2cn1)c1ccc(C#N)cc1` [Compound 138, N-(4-cyanophenyl)-N-methyl-3-[4-(2,2,2-trifluoroethoxy)phenyl]imidazo[1,2-a]pyrazine-6-carboxamide], the EC50 is 849 nM.
As for `COc1ccc(N(C)C(=O)c2cn3c(-c4ccc(C(F)(F)F)cc4)cnc3cn2)cc1` [Compound 139, N-(4-methoxyphenyl)-N-methyl-3-[4-(trifluoromethyl)phenyl]imidazo[1,2-a]pyrazine-6-carboxamide], the EC50 turned out to be 1160 nM.
Regarding `CN(C(=O)c1cn2c(-c3ccc(C(F)(F)F)cc3F)cnc2cn1)c1ccc(C#N)cc1` [Compound 140, N-(4-cyanophenyl)-3-[2-fluoro-4-(trifluoromethyl)phenyl]-N-methylimidazo[1,2-a]pyrazine-6-carboxamide], the EC50 was 436 nM.
Same read-out and setting: under `CN(C(=O)c1cn2c(-c3ccc4c(ccn4C)c3)cnc2cn1)c1ccc(Cl)cc1` [Compound 141, N-(4-chlorophenyl)-N-methyl-3-(1-methyl-1H-indol-5-yl)imidazo[1,2-a]pyrazine-6-carboxamide] stands 433 nM.
For the compound `CN(C(=O)c1cn2c(-c3ccc(OC(F)F)cc3)cnc2cn1)c1ccc(F)c(F)c1` [Compound 142, 3-[4-(difluoromethoxy)phenyl]-N-(3,4-difluorophenyl)-N-methylimidazo[1,2-a]pyrazine-6-carboxamide], the EC50 was found to be 202 nM.
Still for that read-out and setting: under `CN(C(=O)c1cn2c(-c3ccc4[nH]cnc4c3)cnc2cn1)c1ccc(C#N)cc1` [Compound 143, 3-(1H-1,3-benzodiazol-5-yl)-N-(4-cyanophenyl)-N-methylimidazo[1,2-a]pyrazine-6-carboxamide] stands 1560 nM; under `CN(C(=O)c1cn2c(-c3ccc(-n4cccn4)cc3)cnc2cn1)c1ccc(F)c(F)c1` [Compound 144, N-(3,4-difluorophenyl)-N-methyl-3-[4-(1H-pyrazol-1-yl)phenyl]imidazo[1,2-a]pyrazine-6-carboxamide], 366 nM.
On the same count and under the same terms, the same measure for `CN(C(=O)c1cn2c(-c3ccc4[nH]ncc4c3)cnc2cn1)c1ccc(C#N)cc1` [Compound 145, N-(4-cyanophenyl)-3-(1H-indazol-5-yl)-N-methylimidazo[1,2-a]pyrazine-6-carboxamide]: 648 nM; for `CN(C(=O)c1cn2c(-c3ccc(C(F)(F)F)cc3)cnc2cn1)c1ccc(C#N)nc1` [Compound 147, N-(6-cyanopyridin-3-yl)-N-methyl-3-[4-(trifluoromethyl)phenyl]imidazo[1,2-a]pyrazine-6-carboxamide]: 564 nM.
With `CN(C(=O)c1cn2c(-c3ccc4nn(C)cc4c3)cnc2cn1)c1ccc(C#N)cc1` [Compound 149, N-(4-cyanophenyl)-N-methyl-3-(2-methyl-2H-indazol-5-yl)imidazo[1,2-a]pyrazine-6-carboxamide], the EC50 came out at 1520 nM.
Regarding `Cc1cc(C(F)(F)F)ccc1-c1cnc2cnc(C(=O)N(C)c3ccc(C#N)cc3)cn12` [Compound 150, N-(4-cyanophenyl)-N-methyl-3-[2-methyl-4-(trifluoromethyl)phenyl]imidazo[1,2-a]pyrazine-6-carboxamide], the EC50 was determined as 3590 nM.
Still for that read-out and setting: under `CN(C(=O)c1cn2c(-c3ccc(-n4cccn4)cc3)cnc2cn1)c1ccc(F)cc1` [Compound 151, N-(4-fluorophenyl)-N-methyl-3-[4-(1H-pyrazol-1-yl)phenyl]imidazo[1,2-a]pyrazine-6-carboxamide] stands 673 nM.
Same read-out and setting: the same measure for `CC(C)S(=O)(=O)c1ccc(-c2cnc3cnc(C(=O)N(C)c4ccc(C#N)cc4)cn23)cc1` [Compound 152, N-(4-cyanophenyl)-N-methyl-3-[4-(propane-2-sulfonyl)phenyl]imidazo[1,2-a]pyrazine-6-carboxamide]: 3170 nM.
